Consider 17 molecules from publication PMC10014601, “The cyclic peptide G4CP2 enables the modulation of galactose metabolism in yeast by interfering with GAL4 transcriptional activity” (Frontiers in Molecular Biosciences, 2023).

The nature of one data set: in vitro. The settings on record: for Papp / Papp at 18 h: pH 7.4. The procedure:
A 96-well acceptor microplate (PTFE, Millipore) was prepared by filled each well with 300 μL of PBS/DMSO (95:5, pH = 7.4), while the donor microplate artificial membrane (PVDF membrane, pore size […], Millipore) was carefully coated with 5 μL of PBL dissolved in dodecane ([…]). Each compound was dissolved in DMSO, diluted with PBS/DMSO (95:5, pH = 7.4) to a final concentration of 40–100 μM in the donor well, filtered with a Millex filter, and applied to the donor microplate wells (200 μL). Next, the donor plate was carefully placed on top of the acceptor plate, thereby bringing the artificial membrane in contact with the buffer solution underneath. The donor well was covered with a lid, and the whole system was left undisturbed overnight (18 h) at 25°C in a container sealed with damp paper towels to prevent evaporation. After incubation, the donor microplate was carefully removed, and UV-vis spectroscopy was used to determine the amounts of the tested compounds in the acceptor and donor microplate wells, respectively. Each sample was evaluated at five wavelengths in four wells during three separate runs; accordingly, all data are presented as mean values with relevant standard deviation. The permeability values (Pe,exp, cm/s) were calculated according to the following expression: Pe,exp = {−VdVa/[(Vd + Va)At]ln–1—da/deq}, in which Vd and Va represent the volumes of the donor and the acceptor wells, respectively, A is the surface of the artificial membrane, t is the permeation time, whilst da and deq are the absorbance measured in the acceptor well and the theoretical equilibrium absorbance value, respectively. After the PAMPA-BBB test for all compounds was completed, the integrity of the lipid membrane was evaluated based on the transport of Lucifer Yellow (Sigma-Aldrich)—a fluorescent molecule with very limited membrane permeability rejected by a uniform and integral lipid membrane performed according to the Millipore protocol lit. n. PC1545EN00 (https://www.sigmaaldrich.com/technical-documents/protocols/biology/membrane-integrity-test-for-lipid-pampa-artificial-membranes.html).

For data set [1] the following is noted: PAMPA-BBB literature value, cited from earlier work. The source says:
Supplement Table3.XLSX, sheet "Primer list" | column: Pe,lit
(In general: In PAMPA a lipid-coated filter parts donor from acceptor wells.)

The target in the next data set is T1, GAL4 (Saccharomyces cerevisiae, UniProt P04386).
T1 construct: endogenous in cells; host or cells: S. cerevisiae BY4741 (S288C derivative) with integrated GAL1p-YFP cassette
Kind of data set: pGAL1::YFP reporter fluorescence (YFP/OD600), BY4741 treated with chemically synthesized peptides (feeding). It is filed as cell-based. Conditions: 100 µM peptide; 1.00 and 10.00 Gal/Glu ratios; 15.5 h. The procedure:
The fluorescence signal of BY4741 pGAL1::YFP reporter strain was measured using a Varioskan LUX multimode microplate reader (ThermoFisher Scientific). Overnight cultures were pelleted, washed twice in water and OD600 normalized for the different cultures. An equal volume of normalized cultures was pipetted in each well of a 96-well plate containing different galactose/glucose (Gal/Glu) ratios. When treating the cells with chemically synthesized G4CP2, a 10 mM stock solution (100% DMSO) was diluted to a working concentration of 100 µM in each well designated for treatment. Fluorescence and OD600 measurements were performed by incubating plates at 28°C, shaking 2 min at 180 rpm, before each measurement.
To test the effects of exogenous administration of chemically synthetized G4CP2 on pGAL1::YFP biosensor, a random-selected control peptide (CP11) was used. […] G4CP2 and CP11 were used at 100 µM to treat BY4741 pGAL1::YFP yeast cells grown in 96-well plates under 1.00 and 10.00 Gal/Glu ratios. YFP/OD600 values were again recorded for 15.5 h (Figure 4D).

Where [2] appears, read: marked a (or a,b; then also Kerns et al., 2004), ref Di et al., 2003.
Where [3] appears, read: marked b, ref Kerns et al., 2004.

Read-outs that look alike come from different tables or passages of the source. Where a SMILES comes first, the peptide text is derived from it. [ ]: non-standard residue; d: D form. βAla = NCCC(=O)O

For orientation: Papp means a coefficient for how fast a substance crosses the barrier. The molecule `CN1C(=O)CN=C(c2ccccc2)c2cc(Cl)ccc21` [Diazepam] had a Papp in the data set “in vitro” (pig, PAMPA) of 13.7 ± 0.8 ×10⁻⁶ cm/s. Consider `CC(C)[C@H]1C(=O)O[C@H](C(C)C)C(=O)N(C)[C@@H](C(C)C)C(=O)O[C@H](C(C)C)C(=O)N(C)[C@@H](C(C)C)C(=O)O[C@H](C(C)C)C(=O)N1C` [EnB], for which, in the data set “in vitro” (PAMPA), the Papp at 18 h was 8.3 ± 0.7 ×10⁻⁶ cm/s. Consider `Cn1c(=O)c2c(ncn2C)n(C)c1=O` [Caffeine], for which the “Pe,exp” value in “in vitro” (PAMPA-BBB validation, porcine brain lipid in dodecane (20 mg/L), PBS/DMSO 95:5 pH 7.4, 40–100 μM donor, 18 h, 25°C, UV-vis, mean ± SD, four wells, three runs) is recorded as 1.7 ± 0.2 10-6 cm/s. On to `CN1C(C(=O)Nc2ccccn2)=C(O)c2ccccc2S1(=O)=O` [Piroxicam], for which the “Pe,lit” value in data set [1] (setting [2]) is 2.5a 10-6 cm/s. With `Cc1nnc2n1-c1ccc(Cl)cc1C(c1ccccc1)=NC2` [Alprazolam], in “in vitro” (pig, PAMPA), the Papp worked out at 5.1 ± 0.4 ×10⁻⁶ cm/s. Besides, the “Pe,lit” value in data set [1] (setting [2]) was 5.4a 10-6 cm/s. `CCn1cc(C(=O)O)c(=O)c2cc(F)c(N3CCNCC3)nc21` [Enoxacin] displayed a Papp at 18 h in “in vitro” (pig, PAMPA) of 0.98 ± 0.3 ×10⁻⁶ cm/s. Regarding `CCn1cc(C(=O)O)c(=O)c2cc(F)c(N3CCNCC3)cc21` [Norfloxacin], the Papp at 18 h in the data set “in vitro” (pig, PAMPA) was found to be 0.15 ± 0.01 ×10⁻⁶ cm/s. As for `CCn1cc(C(=O)O)c(=O)c2cc(F)c(N3CCNC(C)C3)c(F)c21` (stereo not shown) [Lomefloxacin], the Papp at 18 h in the data set “in vitro” (pig, PAMPA) amounted to 1.4 ± 0.1 ×10⁻⁶ cm/s. Same read-out and setting: the figure for `CN(C)CCCN1c2ccccc2Sc2ccc(Cl)cc21` [Chlorpromazine] is 6.8 ± 0.3 ×10⁻⁶ cm/s.

Turning to `CSCC[C@@H]1NC(=O)[C@H](CC(=O)O)NC(=O)[C@H](Cc2ccccc2)NC(=O)[C@H](Cc2ccccc2)NC(=O)[C@H](Cc2ccc(O)cc2)NC(=O)[C@H](CCCNC(=N)N)NC(=O)CCNC(=O)[C@H](Cc2ccc(O)cc2)NC(=O)[C@H](Cc2c[nH]c3ccccc23)NC1=O` [G4CP2] (cyclo(DMWY[βAla]RYFF)), in the data set “in vitro” (PAMPA), the passive permeability classification entry is recorded as “moderate-to-good” and the Papp stood at 3.3 ± 0.4 ×10⁻⁶ cm/s. In addition, the “YFP fluorescence signal over time (YFP/OD600)” value on GAL4 is “strongly attenuated”. Molecule `CCN(CC)CCCC(C)Nc1ccnc2cc(Cl)ccc12` (stereo not shown) [Chloroquine] returned a Papp at 18 h in the data set “in vitro” (pig, PAMPA) of 2.4 ± 0.1 ×10⁻⁶ cm/s. Consider `CC(C)NCC(O)COc1ccc(CC(N)=O)cc1` (stereo not shown) [Atenolol], for which the Papp at 18 h in the data set “in vitro” (pig, PAMPA) turned out to be 0.74 ± 0.04 ×10⁻⁶ cm/s. As for `O=C1Nc2ccc(Cl)cc2C(c2ccccc2)=NC1O` (stereo not shown) [Oxazepam], the “Pe,lit” value in data set [1] (setting [2]) is recorded as 10a 10-6 cm/s.

As for `CC(=O)[C@H]1CC[C@H]2[C@@H]3CCC4=CC(=O)CC[C@]4(C)[C@H]3CC[C@]12C` [Progesterone], the Papp at 18 h in the data set “in vitro” (pig, PAMPA) is 10.9 ± 0.7 ×10⁻⁶ cm/s. For `OCCN(CCO)c1nc(N2CCCCC2)c2nc(N(CCO)CCO)nc(N3CCCCC3)c2n1` [Dipyridamole], the Papp at 18 h in the data set “in vitro” (pig, PAMPA) turned out to be 3.8 ± 0.4 ×10⁻⁶ cm/s. For the same molecule, the “Pe,lit” value in data set [1] (setting [3]) is reported as 3.5b 10-6 cm/s. `COc1cc(Cc2cnc(N)nc2N)cc(OC)c1OC` [Trimethoprim] displayed a Papp at 18 h in the data set “in vitro” (pig, PAMPA) of 2.5 ± 0.2 ×10⁻⁶ cm/s. Also, the “Pe,lit” value in data set [1] (setting [3]) was 2.2b 10-6 cm/s. In the case of `C/C=C/C[C@@H](C)[C@@H](O)[C@H]1C(=O)N[C@@H](C(C)C)C(=O)N(C)CC(=O)N(C)[C@@H](CC(C)C)C(=O)N[C@@H](C(C)C)C(=O)N(C)[C@@H](CC(C)C)C(=O)N[C@@H](C)C(=O)N[C@H](C)C(=O)N(C)[C@@H](CC(C)C)C(=O)N(C)[C@@H](CC(C)C)C(=O)N(C)[C@@H](C(C)C)C(=O)N1C` [CSD], the Papp in the data set “in vitro” (PAMPA) stood at 0.93 ± 0.5 ×10⁻⁶ cm/s.
